Experiments:
[1] = humans, cited from earlier work
[2] = tested on: spontaneously hypertensive rats; assay: Hypotensive effects in the spontaneous hypertensive rat model (Cerep); assay type: in vivo; conditions: oral administration, 10 mg/kg, 8 rats per group, over 8 h
Experimental: Hypotensive effects in the spontaneous hypertensive rat model. Effects of the products of examples 7, 9, 12, 18, 27 and 30 are tested by oral administration to spontaneously hypertensive rats at Cerep, using essentially the procedure of Bazil M K et. al., J. Cardiovasc. Pharmacol. 1993 22: 897 and a sample size of 8 rats per group.

CN1CC(=O)N2[C@H](c3ccc4c(c3)OCO4)c3[nH]c4ccccc4c3C[C@@H]2C1=O [Compound 1, (6R,12aR)-6-(1,3-benzodioxol-5-yl)-2-methyl-1,2,3,4,6,7,12,12a-octahydropyrazino[1′,2′:1,6]pyrido[3,4-b]indole-1,4-dione]
half-life and exposure (AUC) when dosed concurrently with CYP3A4 inhibitors ([1]; co-dosing with inhibitors of CYP3A4): clinically meaningful increases
absorption following oral administration ([1]; oral): well absorbed
amount excreted unchanged ([1]; oral): only a minor amount

[2H]C([2H])([2H])N1CC(=O)N2[C@H](c3ccc4c(c3)OC(F)(F)O4)c3[nH]c4ccccc4c3C[C@@H]2C1=O [Example 7, (6R,12aR)-6-(2,2-Difluorobenzo[d]-1,3-dioxol-5-yl)-1,2,3,4,6,7,12,12a-octahydropyrazino[1′,2′:1,6]pyrido[3,4-b]indole-2-trideuteromethyl-1,4-dione]
reduction in blood pressure [2]: significant reductions in blood pressure sustained over 8 h

[2H]c1cc2c(cc1[C@@H]1c3[nH]c4ccccc4c3C[C@@H]3C(=O)N(C)CC(=O)N13)OC(F)(F)O2 [Example 9, (6R,12aR)-6-(6-Deutero-2,2-difluorobenzo[d]-1,3-dioxol-5-yl)-2-methyl-1,2,3,4,6,7,12,12a-octahydropyrazino[1′,2′:1,6]pyrido[3,4-b]indole-1,4-dione]
reduction in blood pressure [2]: significant reductions in blood pressure sustained over 8 h

[2H][C@@]1(c2ccc3c(c2)OC(F)(F)O3)c2[nH]c3ccccc3c2C[C@@H]2C(=O)N(C)CC(=O)N21 [Example 12, (6R,12aR)-6-Deutero-6-(2,2-difluorobenzo[d]-1,3-dioxol-5-yl)2-methyl-1,2,3,4,6,7,12,12a-octahydropyrazino[1′,2′:1,6]pyrido[3,4-b]indole-1,4-dione]
reduction in blood pressure [2]: significant reductions in blood pressure sustained over 8 h

CN1CC(=O)N2[C@H](c3ccc4c(c3)OC(F)(F)O4)c3[nH]c4ccccc4c3C[C@@H]2C1=O [Example 18, (6R,12aR)-6-(2,2-Difluorobenzo[d]-1,3-dioxol-5-yl)-1,2,3,4,6,7,12,12a-octahydropyrazino[1′,2′:1,6]pyrido[3,4-b]indole-2-methyl-1,4-dione]
reduction in blood pressure [2]: significant reductions in blood pressure sustained over 8 h

[2H]C1([2H])Oc2ccc([C@@H]3c4[nH]c5ccccc5c4C[C@@H]4C(=O)N(C)CC(=O)N34)cc2O1 [Example 27, (6R,12aR)-6-(2,2-dideuterobenzo[d]-1,3-dioxol-5-yl)-2-methyl-1,2,3,4,6,7,12,12a-octahydropyrazino[1′,2′:1,6]pyrido[3,4-b]indole-1,4-dione]
reduction in blood pressure [2]: significant reductions in blood pressure sustained over 8 h

[2H]C1([2H])Oc2ccc([C@@H]3c4[nH]c5ccccc5c4C[C@@H]4C(=O)N(C([2H])([2H])[2H])CC(=O)N34)cc2O1 [Example 30, (6R,12aR)-6-(2,2-dideuterobenzo[d]-1,3-dioxol-5-yl)-1,2,3,4,6,7,12,12a-octahydropyrazino[1′,2′:1,6]pyrido[3,4-b]indole-2-trideuteromethyl-1,4-dione]
reduction in blood pressure [2]: significant reductions in blood pressure sustained over 8 h
